Assay results taken from patent publication US8889676B2, “3-ureidoisoquinolin-8-yl derivatives” (Actelion Pharmaceuticals Ltd., priority 2011, dated 2014).
≈ marks a conversion by molar mass, not a printed value.

Test system: S. pneumoniae ATCC 49619
Test: Minimal inhibitory concentration (MIC) by broth microdilution (CLSI M7-A7)
Assay type: cell-based, Streptococcus pneumoniae
Settings: Streptococcus pneumoniae, ATCC49619; cation-adjusted Mueller Hinton Broth supplemented with 3% (v/v) lysed horse blood; microdilution method
Procedure: Minimal inhibitory concentrations (MICs; mg/l) were determined in cation-adjusted MuellerHinton Broth (supplemented with 3% (v/v) lysed horse blood for testing Streptococcus pneumoniae) by a microdilution method following the description given in “Methods for Dilution Antimicrobial Susceptibility Tests for Bacteria that Grow Aerobically”, Approved standard, 7th ed., a Clinical and Laboratory Standards Institute (CLSI) Document M7-A7, Wayne, Pa., USA, 2006.

| Compound | MIC |
| --- | --- |
| CCNC(=O)Nc1cc2c(-c3ccncc3)ccc(CNC(=O)OCc3cccnc3)c2cn1 [Example 42, [3-(3-ethyl-ureido)-5-pyridin-4-yl-isoquinolin-8-ylmethyl]-carbamic acid pyridin-3-ylmethyl ester] | 0.5 µg/mL (≈ 1.1 µM) |
| CCNC(=O)Nc1cc2c(-c3ccncc3)ccc(CNC(=O)CC(=O)O)c2cn1 [Example 45, N-[3-(3-ethyl-ureido)-5-pyridin-4-yl-isoquinolin-8-ylmethyl]-malonamic acid] | 8 µg/mL (≈ 19.6 µM) |
| CCNC(=O)Nc1cc2c(-c3ccncc3)ccc(CNC(=O)CNC(=O)OC(C)(C)C)c2cn1 [Example 47, ({[3-(3-ethyl-ureido)-5-pyridin-4-yl-isoquinolin-8-ylmethyl]-carbamoyl}-methyl)-carbamic acid tert-butyl ester] | 1 µg/mL (≈ 2.09 µM) |
| CCNC(=O)Nc1cc2c(-c3ccncc3)ccc(CNC(=O)CN)c2cn1.Cl [Example 50, 2-amino-N-[3-(3-ethyl-ureido)-5-pyridin-4-yl-isoquinolin-8-ylmethyl]-acetamide hydrochloride] | 4 µg/mL |
| CCNC(=O)Nc1cc2c(-c3ccncc3)ccc(CNC(=O)CCN)c2cn1.Cl [Example 51, 3-amino-N-[3-(3-ethyl-ureido)-5-pyridin-4-yl-isoquinolin-8-ylmethyl]-propionamide hydrochloride] | 8 µg/mL |
| CCNC(=O)Nc1cc2c(-c3ccncc3)ccc(CNC(=O)CCC(=O)NC)c2cn1 [Example 55, N-[3-(3-ethyl-ureido)-5-pyridin-4-yl-isoquinolin-8-ylmethyl]-N′-methyl-succinamide] | 8 µg/mL (≈ 18.4 µM) |
| CCNC(=O)Nc1cc2c(-c3ccncc3)ccc(CNC(=O)CCN(C)C(=O)OC(C)(C)C)c2cn1 [Example 58, (2-{[3-(3-ethyl-ureido)-5-pyridin-4-yl-isoquinolin-8-ylmethyl]-carbamoyl}-ethyl)-methyl-carbamic acid tert-butyl ester] | 2 µg/mL (≈ 3.95 µM) |
| CCNC(=O)Nc1cc2c(-c3ccncc3)ccc(CNC(=O)CO)c2cn1 [Example 61, N-[3-(3-ethyl-ureido)-5-pyridin-4-yl-isoquinolin-8-ylmethyl]-2-hydroxy-acetamide] | 4 µg/mL (≈ 10.5 µM) |
| CCNC(=O)Nc1cc2c(-c3ccncc3)ccc(CNC(=O)CCCN(C)C(=O)OC(C)(C)C)c2cn1 [Example 62, (3-{[3-(3-ethyl-ureido)-5-pyridin-4-yl-isoquinolin-8-ylmethyl]-carbamoyl}propyl)-methyl-carbamic acid tert-butyl ester] | 1 µg/mL (≈ 1.92 µM) |
| CCNC(=O)Nc1cc2c(-c3ccncc3)ccc(CNC(=O)CCOC)c2cn1 [Example 63, N-[3-(3-ethyl-ureido)-5-pyridin-4-yl-isoquinolin-8-ylmethyl]-3-methoxy-propionamide] | 1 µg/mL (≈ 2.45 µM) |
| CCNC(=O)Nc1cc2c(-c3ccncc3)ccc(CNC(C)=O)c2cn1 [Example 64, N-[3-(3-ethyl-ureido)-5-pyridin-4-yl-isoquinolin-8-ylmethyl]-acetamide] | 0.5 µg/mL (≈ 1.38 µM) |
| CCNC(=O)Nc1cc2c(-c3ccncc3)ccc(CNC(=O)C3CC3)c2cn1 [Example 65, cyclopropanecarboxylic acid [3-(3-ethyl-ureido)-5-pyridin-4-yl-isoquinolin-8-ylmethyl]-amide] | 0.25 µg/mL (≈ 0.642 µM) |
| CCNC(=O)Nc1cc2c(-c3ccncc3)ccc(CNC(=O)CC(C)C)c2cn1 [Example 66, N-[3-(3-ethyl-ureido)-5-pyridin-4-yl-isoquinolin-8-ylmethyl]-3-methyl-butyramide] | 0.25 µg/mL (≈ 0.617 µM) |
| CCNC(=O)Nc1cc2c(-c3ccncc3)ccc(CNC(=O)Cn3cccn3)c2cn1 [Example 70, N-[3-(3-ethyl-ureido)-5-pyridin-4-yl-isoquinolin-8-ylmethyl]-2-pyrazol-1-yl-acetamide] | 0.5 µg/mL (≈ 1.16 µM) |

Further lines, results first:

| MIC | Compound |
| --- | --- |
| 4 µg/mL (≈ 12.7 µM) | CCNC(=O)NCc1cccc2cc(NC(=O)NCC)ncc12 [Example 43, 1-ethyl-3-{8-[(3-ethyl-ureido)-methyl]isoquinolin-3-yl}-urea] |
| 8 µg/mL (≈ 23.5 µM) | C#CCOC(=O)N(C)Cc1cccc2cc(NC(=O)NCC)ncc12 [Example 44, [3-(3-ethyl-ureido)-isoquinolin-8-ylmethyl]-methyl-carbamic acid prop-2-ynyl ester] |
| 2 µg/mL (≈ 4.19 µM) | CCNC(=O)Nc1cc2c(-c3ccncc3)ccc(CNC(=O)CCC(=O)OC(C)(C)C)c2cn1 [Example 46, N-[3-(3-ethyl-ureido)-5-pyridin-4-yl-isoquinolin-8-ylmethyl]-succinamic acid tert-butyl ester] |
| 2 µg/mL (≈ 4.06 µM) | CCNC(=O)Nc1cc2c(-c3ccncc3)ccc(CNC(=O)CN(C)C(=O)OC(C)(C)C)c2cn1 [Example 48, ({[3-(3-ethyl-ureido)-5-pyridin-4-yl-isoquinolin-8-ylmethyl]-carbamoyl}-methyl)-methyl-carbamic acid tert-butyl ester] |
| 0.5 µg/mL (≈ 1.02 µM) | CCNC(=O)Nc1cc2c(-c3ccncc3)ccc(CNC(=O)CCNC(=O)OC(C)(C)C)c2cn1 [Example 49, (2-{[3-(3-ethyl-ureido)-5-pyridin-4-yl-isoquinolin-8-ylmethyl]-carbamoyl}-ethyl)-carbamic acid tert-butyl ester] |
| 2 µg/mL (≈ 4.92 µM) | CCNC(=O)Nc1cc2c(-c3ccncc3)ccc(CNC(=O)CC(N)=O)c2cn1 [Example 52, N-[3-(3-ethyl-ureido)-5-pyridin-4-yl-isoquinolin-8-ylmethyl]-malonamide] |
| 4 µg/mL (≈ 9.51 µM) | CCNC(=O)Nc1cc2c(-c3ccncc3)ccc(CNC(=O)CC(=O)NC)c2cn1 [Example 53, N-[3-(3-ethyl-ureido)-5-pyridin-4-yl-isoquinolin-8-ylmethyl]-N′-methyl-malonamide] |
| 4 µg/mL (≈ 9.51 µM) | CCNC(=O)Nc1cc2c(-c3ccncc3)ccc(CNC(=O)CCC(N)=O)c2cn1 [Example 54, N-[3-(3-ethyl-ureido)-5-pyridin-4-yl-isoquinolin-8-ylmethyl]-succinamide] |
| 1 µg/mL (≈ 1.97 µM) | CCNC(=O)Nc1cc2c(-c3ccncc3)ccc(CNC(=O)CCCNC(=O)OC(C)(C)C)c2cn1 [Example 56, (3-{[3-(3-ethyl-ureido)-5-pyridin-4-yl-isoquinolin-8-ylmethyl]-carbamoyl}-propyl)-carbamic acid tert-butyl ester] |
| 0.5 µg/mL (≈ 1.24 µM) | CCNC(=O)Nc1cc2c(-c3ccncc3)ccc(CNC(=O)CC3CC3)c2cn1 [Example 57, 2-cyclopropyl-N-[3-(3-ethyl-ureido)-5-pyridin-4-yl-isoquinolin-8-ylmethyl]-acetamide] |
| 0.5 µg/mL (≈ 1.32 µM) | CCNC(=O)Nc1cc2c(-c3ccncc3)ccc(CNC(=O)CC)c2cn1 [Example 59, N-[3-(3-ethyl-ureido)-5-pyridin-4-yl-isoquinolin-8-ylmethyl]-propionamide] |
| 8 µg/mL (≈ 18.6 µM) | CCNC(=O)Nc1cc2c(-c3ccncc3)ccc(CNC(=O)Cc3c[nH]cn3)c2cn1 [Example 60, N-[3-(3-ethyl-ureido)-5-pyridin-4-yl-isoquinolin-8-ylmethyl]-2-(1H-imidazol-4-yl)-acetamide] |
| 0.5 µg/mL (≈ 1.28 µM) | CCNC(=O)Nc1cc2c(-c3ccncc3)ccc(CNC(=O)C(C)C)c2cn1 [Example 67, N-[3-(3-ethyl-ureido)-5-pyridin-4-yl-isoquinolin-8-ylmethyl]-isobutyramide] |
| 4 µg/mL (≈ 10.2 µM) | CCNC(=O)Nc1cc2c(-c3ccncc3)ccc(CNC(=O)CCO)c2cn1 [Example 68, N-[3-(3-ethyl-ureido)-5-pyridin-4-yl-isoquinolin-8-ylmethyl]-3-hydroxy-propionamide] |
| 0.25 µg/mL (≈ 0.623 µM) | C#CCCC(=O)NCc1ccc(-c2ccncc2)c2cc(NC(=O)NCC)ncc12 [Example 69, pent-4-ynoic acid [3-(3-ethyl-ureido)-5-pyridin-4-yl-isoquinolin-8-ylmethyl]-amide] |
